Where two headings read alike, the source gives them in different places.
Experiments:
[1] = methanolic solution 61 mg/mL added to HCl 0.1 N
Excerpt: Measurements were obtained using a Sympatec HELOS model KF particle sizer with SUCELL and R5 lens (0.5-875 μm), pump, and stirrer speeds set to 50% of the maximum value.

[2] = approx. 48 mg in 400 mL, 36.8° C., approximately 12 hours
Experimental: The solutions were stirred by paddles at 150 RPM for approximately 12 hours. […] The standards and sample preparations were measured at 282 nm in a 1 cm cell using a UV spectrophotometer. The results were determined from the linearity curve generated from the standard data.

## CCC(=O)O[C@](Cc1ccccc1)(c1ccccc1)[C@H](C)CN(C)C.O=C(O)Cc1ccccc1Nc1c(Cl)cccc1Cl [Propoxyphene Diclofenate, (2S,3R)-(+)-4-(Dimethylamino)-3-methyl-1,2-diphenyl-2-butanol Propionate Diclofenate]
[1]; 15 minutes
  Particle size Mean: 152.4 μm
  Particle size ≦50%: 141.2 μm
  Particle size ≦90%: 287.9 μm
[1]; 45 minutes
  Particle size Mean: 155.5 μm
  Particle size ≦50%: 143.0 μm
  Particle size ≦90%: 293.9 μm
[1]; 75 minutes
  Particle size Mean: 161.7 μm
  Particle size ≦50%: 140.5 μm
  Particle size ≦90%: 308.6 μm
[1]; 120 minutes
  Particle size Mean: 149.2 μm
  Particle size ≦50%: 135.4 μm
  Particle size ≦90%: 286.3 μm
[1]; 150 minutes
  Particle size Mean: 124.2 μm
  Particle size ≦50%: 110.2 μm
  Particle size ≦90%: 238.4 μm
[2]; water pH 3
  % Dissolved: 0.009%
  mg Dissolved from 48 mg Solution: 0.004 mg
  mg/mL Dissolved: 1.0528e-05 mg/mL
[2]; water pH 5
  % Dissolved: 74.878%
  mg Dissolved from 48 mg Solution: 36.005 mg
  mg/mL Dissolved: 0.09 mg/mL
[2]; water pH 7
  % Dissolved: 75.677%
  mg Dissolved from 48 mg Solution: 36.644 mg
  mg/mL Dissolved: 0.0916 mg/mL
[2]; water pH 9
  % Dissolved: 71.168%
  mg Dissolved from 48 mg Solution: 34.018 mg
  mg/mL Dissolved: 0.08504 mg/mL
[2]; water pH 11
  % Dissolved: 39.395%
  mg Dissolved from 48 mg Solution: 18.700 mg
  mg/mL Dissolved: 0.04676 mg/mL

Source: patent publication US20050203115A1, “Narcotic-NSAID ion pairs” (priority 2004, published 2005)
